Source: the supplement of paper PMC9663587

Assays:
Taselisib/GDC0032 = compound: Cc1nc(-c2cn3c(n2)-c2ccc(-c4cnn(C(C)(C)C(N)=O)c4)cc2OCC3)n(C(C)C)n1 [Taselisib/GDC0032]
[1] = compound: CO[C@@H](C)Cn1c(=O)n(C)c2cnc3ccc(-c4cncc(C(C)(C)O)c4)cc3c21
Flavopiridol [2] = compound: T1, CN1CC[C@H](c2c(O)cc(O)c3c(=O)cc(-c4ccccc4Cl)oc23)[C@H](O)C1 [Flavopiridol]
Saracatinib/AZD0530 = compound: CN1CCN(CCOc2cc(OC3CCOCC3)c3c(Nc4c(Cl)ccc5c4OCO5)ncnc3c2)CC1 [Saracatinib/AZD0530]
ABT-737 = compound: CN(C)CC[C@H](CSc1ccccc1)Nc1ccc(S(=O)(=O)NC(=O)c2ccc(N3CCN(Cc4ccccc4-c4ccc(Cl)cc4)CC3)cc2)cc1[N+](=O)[O-] [ABT-737]
BSJ-03-123 = compound: CC(=O)c1c(C)c2cnc(Nc3ccc(N4CCN(CCOCCOCCOCCNC(=O)COc5cccc6c5C(=O)N(C5CCC(=O)NC5=O)C6=O)CC4)cn3)nc2n(C2CCCC2)c1=O [BSJ-03-123]; assay: GR value, 72 h; higher = faster growth (1 = untreated, <0 = killing);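 note: breast cancer and non-malignant breast epithelial lines, nine half-log doses, viable cells counted by Hoechst and LIVE/DEAD dye imaging versus time-zero plates and DMSO controls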
Flavopiridol [3] = compound: T1, Flavopiridol; assay: as above
THZ1 = compound: CN(C)C/C=C/C(=O)Nc1ccc(C(=O)Nc2cccc(Nc3ncc(Cl)c(-c4c[nH]c5ccccc45)n3)c2)cc1 [THZ1]; assay: as above
LEE011/Ribociclib = compound: CN(C)C(=O)c1cc2cnc(Nc3ccc(N4CCNCC4)cn3)nc2n1C1CCCC1 [LEE011/Ribociclib]; assay: as above
THZ531 = compound: CN(C)C/C=C/C(=O)Nc1ccc(C(=O)N2CCC[C@@H](Nc3ncc(Cl)c(-c4c[nH]c5ccccc45)n3)C2)cc1 [THZ531]; assay: as above
YKL-5-124 = compound: C=CC(=O)Nc1ccc(C(=O)Nc2[nH]nc3c2CN(C(=O)N[C@H](CN(C)C)c2ccccc2)C3(C)C)cc1 [YKL-5-124]; assay: as above
[4] = compound: CCN1CCN(Cc2ccc(Nc3ncc(F)c(-c4cc(F)c5nc(C)n(C(C)C)c5c4)n3)nc2)CC1; assay: as above
[5] = compound: CCc1cnn2c(NCc3ccc[n+]([O-])c3)cc(N3CCCC[C@H]3CCO)nc12; assay: as above
[6] = compound: CC(=O)c1c(C)c2cnc(Nc3ccc(N4CCNCC4)cn3)nc2n(C2CCCC2)c1=O; assay: as above
Neratinib/HKI272 = compound: CCOc1cc2ncc(C#N)c(Nc3ccc(OCc4ccccn4)c(Cl)c3)c2cc1NC(=O)/C=C/CN(C)C [Neratinib/HKI272]; assay: as above
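Throughout, for GR50, 72 h: breast cancer and non-malignant breast epithelial cell lines, Deep Dye Drop or Dye Drop imaging, nine half-log doses, GR normalized to time-zero plates and DMSO-only controls.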

UACC812
GR50, 72 h (Taselisib/GDC0032): 0.0622 µM | GR50, 72 h [1]: < 0.001 µM | GR50, 72 h (Flavopiridol [2]): 0.0813 µM | GR50, 72 h (Saracatinib/AZD0530): 0.0189 µM | GR50, 72 h (ABT-737): 3.73 µM | GR value (BSJ-03-123; 0.001 µM): 0.833 GR | GR value (BSJ-03-123; 0.003162 µM): 0.862 GR | GR value (BSJ-03-123; 0.01 µM): 0.699 GR | GR value (BSJ-03-123; 0.03162 µM): 0.711 GR | GR value (BSJ-03-123; 0.1 µM): 0.74 GR | GR value (BSJ-03-123; 0.3162 µM): 0.887 GR | GR value (BSJ-03-123; 1 µM): 0.48 GR | GR value (BSJ-03-123; 3.162 µM): 0.408 GR | GR value (BSJ-03-123; 10 µM): -0.328 GR | GR value (Flavopiridol [3]; 0.0001 µM): 0.797 GR | GR value (Flavopiridol [3]; 0.0003162 µM): 1.15 GR | GR value (Flavopiridol [3]; 0.001 µM): 0.734 GR | GR value (Flavopiridol [3]; 0.003162 µM): 0.914 GR | GR value (Flavopiridol [3]; 0.01 µM): 0.878 GR | GR value (Flavopiridol [3]; 0.03162 µM): 0.785 GR | GR value (Flavopiridol [3]; 0.1 µM): 0.457 GR | GR value (Flavopiridol [3]; 0.3162 µM): -0.332 GR | GR value (Flavopiridol [3]; 1 µM): -0.812 GR | GR value (THZ1; 0.0001 µM): 1.23 GR | GR value (THZ1; 0.0003162 µM): 1.05 GR | GR value (THZ1; 0.001 µM): 1.18 GR | GR value (THZ1; 0.003162 µM): 0.811 GR | GR value (THZ1; 0.01 µM): 1.1 GR | GR value (THZ1; 0.03162 µM): 0.842 GR | GR value (THZ1; 0.1 µM): 1.1 GR | GR value (THZ1; 0.3162 µM): 1.01 GR | GR value (THZ1; 1 µM): -0.293 GR | GR value (LEE011/Ribociclib; 0.001 µM): 0.753 GR | GR value (LEE011/Ribociclib; 0.003162 µM): 0.55 GR | GR value (LEE011/Ribociclib; 0.01 µM): 0.569 GR | GR value (LEE011/Ribociclib; 0.03162 µM): 0.333 GR | GR value (LEE011/Ribociclib; 0.1 µM): 0.309 GR | GR value (LEE011/Ribociclib; 0.3162 µM): 0.218 GR | GR value (LEE011/Ribociclib; 1 µM): 0.148 GR | GR value (LEE011/Ribociclib; 3.162 µM): 0.171 GR | GR value (LEE011/Ribociclib; 10 µM): 0.0704 GR | GR value (THZ531; 0.0001 µM): 0.819 GR | GR value (THZ531; 0.0003162 µM): 1.04 GR | GR value (THZ531; 0.001 µM): 0.807 GR | GR value (THZ531; 0.003162 µM): 0.754 GR | GR value (THZ531; 0.01 µM): 0.851 GR | GR value (THZ531; 0.03162 µM): 0.958 GR | GR value (THZ531; 0.1 µM): 0.942 GR | GR value (THZ531; 0.3162 µM): 1.17 GR | GR value (THZ531; 1 µM): 0.547 GR | GR value (YKL-5-124; 0.001 µM): 0.609 GR | GR value (YKL-5-124; 0.003162 µM): 0.318 GR | GR value (YKL-5-124; 0.01 µM): 0.142 GR | GR value (YKL-5-124; 0.03162 µM): -0.122 GR | GR value (YKL-5-124; 0.1 µM): -0.106 GR | GR value (YKL-5-124; 0.3162 µM): -0.151 GR | GR value (YKL-5-124; 1 µM): 0.0505 GR | GR value (YKL-5-124; 3.162 µM): -0.246 GR | GR value (YKL-5-124; 10 µM): -0.423 GR | GR value ([4]; 0.001 µM): 0.849 GR | GR value ([4]; 0.003162 µM): 0.562 GR | GR value ([4]; 0.01 µM): 0.349 GR | GR value ([4]; 0.03162 µM): -0.073 GR | GR value ([4]; 0.1 µM): -0.212 GR | GR value ([4]; 0.3162 µM): -0.252 GR | GR value ([4]; 1 µM): -0.319 GR | GR value ([4]; 3.162 µM): -0.407 GR | GR value ([4]; 10 µM): -0.565 GR | GR value ([5]; 0.0001 µM): 1.17 GR | GR value ([5]; 0.0003162 µM): 1.22 GR | GR value ([5]; 0.001 µM): 1.63 GR | GR value ([5]; 0.003162 µM): 1.63 GR | GR value ([5]; 0.01 µM): 1.28 GR | GR value ([5]; 0.03162 µM): -0.347 GR | GR value ([5]; 0.1 µM): -0.932 GR | GR value ([5]; 0.3162 µM): -0.948 GR | GR value ([5]; 1 µM): -0.949 GR | GR value ([6]; 0.0003162 µM): 1.11 GR | GR value ([6]; 0.001 µM): 0.781 GR | GR value ([6]; 0.003162 µM): 0.839 GR | GR value ([6]; 0.01 µM): 0.637 GR | GR value ([6]; 0.03162 µM): 0.409 GR | GR value ([6]; 0.1 µM): 0.173 GR | GR value ([6]; 0.3162 µM): 0.0192 GR | GR value ([6]; 1 µM): -0.127 GR | GR value ([6]; 3.162 µM): -0.162 GR | GR value (Neratinib/HKI272; 0.0003162 µM): 1.02 GR | GR value (Neratinib/HKI272; 0.001 µM): 0.785 GR | GR value (Neratinib/HKI272; 0.003162 µM): 0.449 GR | GR value (Neratinib/HKI272; 0.01 µM): 0.258 GR | GR value (Neratinib/HKI272; 0.03162 µM): -0.145 GR | GR value (Neratinib/HKI272; 0.1 µM): -0.384 GR | GR value (Neratinib/HKI272; 0.3162 µM): -0.493 GR | GR value (Neratinib/HKI272; 1 µM): -0.574 GR | GR value (Neratinib/HKI272; 3.162 µM): -0.747 GR
